The values below come from patent publication US7405063B2, “Biooxidation capabilities of Candida sp” (Cognis Corporation, priority 2000, dated 2008).

The subject of data set [1] is C. tropicalis. Nature of the data set: Toxicity tests of additional substrates (absorbance at 600 nm). It counts as cell-based. To be noted: for Absorbance at 600 nm: 24 hours, added without solvent. As to the method: Additional substrates were to be tested for bioconversion following a slightly different protocol than the one noted above in Example 3. Those substrates also had to be tested for toxicity similar to the test described in Example 2, to determine the highest concentration at which a substrate could be added to a culture broth without being toxic, inhibiting growth, or interfering with the bioconversion process. C. tropicalis was grown in the presence of the substrate at three different concentrations and growth was monitored spectrophotometrically. In contrast to Example 2, all test substrates were added directly to the culture medium without dissolving in solvent. The tests were completed as follows:
On the first day, H5343 was grown in YPD medium (25.0 ml seed culture) overnight on a rotary shaker at 30° C. and 250 rpm. The next day 1.0 ml of the seed culture was used to inoculate a new flask of 50 ml YPD. This culture was grown overnight on a rotary shaker at 30° C. and 250 rpm. […]
Two control flasks were each inoculated with H5343 in 25 ml YPD. All flasks were incubated on a rotary shaker at 30° C. and 250 rpm.
After 24 hours incubation, the absorbance at 600 nm of the test and control flask cultures was determined, using uninoculated YPD broth as blank. Cultures were diluted so that the OD^600 nm measured between 0.15 and 0.3.
For strongly inhibitory substrates, a concentration of 0.1-0.2% was chosen for the bioconversion tests.

The subject of data set [2] is C. tropicalis strain H5343. To be noted: for nontoxic concentration of solvent: growth of strain H5343; for ABS Lambda = 600.0 nm: 24 h, 30° C., dilution in YPD 1:100.
In data set [3] the test system is C. tropicalis strain H5343. Nature of the data set: Toxicity tests of substrates (growth by absorbance at 600 nm, streak plates). The class given is cell-based. Particulars: 48 h, 30° C., dilution in YPD 1:100. As to the method: The toxicity test used here was similar to that used for the solvents described in Example 1. The goal was to determine the highest concentration at which a substrate could be added to a culture broth without being toxic, inhibiting growth, or interfering with the bioconversion process. C. tropicalis strain H5343 was grown in the presence of the substrate at different concentrations and growth was monitored spectrophotometrically. In order to determine if the substrate was lethal or was simply inhibiting growth, the cultures were examined under the microscope and streak plates of YPD and LB agar were prepared. Contamination of the culture with an unwanted organism could also be detected using this approach.
6 ml was transferred to the first tube and 3 ml to the rest. 1% substrate was added to the first tube and then serially diluted to give concentrations from 1% to 0.015%. Since the last tube was initially empty, the concentration in the last two tubes was the same. […] As a growth-control one culture without substrate was inoculated.
To determine if contamination had occurred, each culture was examined under the microscope and streak plates of both YPD and LB were made from the 1% and the inoculated 0.015% tube.

The structures appear in SMILES notation. Like-named read-outs stand apart in the source and are kept apart here. Bounds are passed on as bounds.

As to `CCCCC(CC)C1OCCN1CCCC` (centres unmarked) [3-Butyl-(ethylpentyl)oxazolidine, 3-Butyl-2(1-ethylpentyl)oxazolidine], the “Absorbance at 600 nm” value in data set [1] (substrate concentration 0.06%) was found to be 12.5; in data set [1] (substrate concentration 0.3%), 0.245; in data set [1] (substrate concentration 0.6%), 1.18.

As to `CCCCCCCCCCCCCCC(O)CO` (centres unmarked) [1,2-Hexadecanediol], the “Absorbance at 600 nm” value in data set [1] (substrate concentration 0.1%) is given as 3.103; in data set [1] (substrate concentration 0.5%) it was 3.033; in data set [1] (substrate concentration 1.0%), 2.013.

On to `CCCCCCc1ccsc1` [3-Hexylthiophene], for which the “Absorbance at 600 nm” value in data set [1] (substrate concentration 0.1%) worked out at 0.933; in data set [1] (substrate concentration 0.5%) it was 1.033; in data set [1] (substrate concentration 1.0%), 1.223.

For `CCCCC(C(=O)O)C(=O)O` [Butylmalonic Acid], the “Absorbance at 600 nm” value in data set [1] (substrate concentration 0.1%) was found to be 27.43; in data set [1] (substrate concentration 0.5%), 27.13; in data set [1] (substrate concentration 1.0%), 8.53.

Regarding `CCCCCCOCCCCCC` [Hexyl Ether, Dihexyl Ether], the figures for the “Absorbance at 600 nm” value in data set [1] (substrate concentration 0.1%), in data set [1] (substrate concentration 0.5%) and in data set [1] (substrate concentration 1.0%) were 12.85, 13.21 and 3.33, respectively.

Turning to `CCCCCOCCCCC` [Pentyl Ether, Dipentyl Ether], the “Absorbance at 600 nm” value is on record as 2.033 in data set [1] (substrate concentration 0.1%), 1.863 in data set [1] (substrate concentration 0.5%) and 1.813 in data set [1] (substrate concentration 1.0%).

For the molecule `CCCCC1CCCCC1` [Butylcyclohexane], the “Absorbance at 600 nm” value in data set [1] (substrate concentration 0.1%) was determined as 22.03; in data set [1] (substrate concentration 0.5%) it was 21.13; in data set [1] (substrate concentration 1.0%) it was 20.33.

Regarding `CCCCCCC(C)O` (centres unmarked) [2-Octanol], the “Toxic at (concentration)” value in data set [1] (Phase II screening summary) is on record as “Toxic at 0.1%”. Besides, the “Absorbance at 600 nm” value in data set [1] (substrate concentration 0.1%) worked out at 0.250; in data set [1] (substrate concentration 0.5%), 0.235; in data set [1] (substrate concentration 1.0%) it was 0.285.

As to `CCO` [Ethanol], in data set [2], the “nontoxic concentration of solvent” value stood at 4%. For the same molecule, the “ABS Lambda = 600.0 nm” value in data set [2] (solvent concentration 0.25%) is recorded as 0.122; in data set [2] (solvent concentration 0.5%) it was 0.104; in data set [2] (solvent concentration 1%) it was 0.137; in data set [2] (solvent concentration 2%) it was 0.119; in data set [2] (solvent concentration 4%) it was 0.090.

In the case of `CCCC1CCCCC1` [Propylcyclohexane], the “Absorbance at 600 nm” value in data set [1] (substrate concentration 0.1%) was determined as 44.13; in data set [1] (substrate concentration 0.5%) it was 34.12; in data set [1] (substrate concentration 1.0%) it was 1.201.

Turning to `CCCC[S+]([O-])CCCC` [Butylsulfoxide, dibutylsulfoxide], the figures for the “Absorbance at 600 nm” value in data set [1] (substrate concentration 0.1%), in data set [1] (substrate concentration 0.5%) and in data set [1] (substrate concentration 1.0%) were 15.63, 11.37 and 5.81, respectively.

On to `CCC1CCCCC1` [Ethylcyclohexane], for which the results for the “Absorbance at 600 nm” value in data set [1] (substrate concentration 0.06%), in data set [1] (substrate concentration 0.3%) and in data set [1] (substrate concentration 0.6%) were 9.45, 2.03 and 16.5, respectively.

On to `CCCCCCC(CO)CCCC` (centres unmarked) [2-Butyl-1-octanol], for which the entries for the “Absorbance at 600 nm” value in data set [1] (substrate concentration 0.1%), in data set [1] (substrate concentration 0.5%) and in data set [1] (substrate concentration 1.0%) were 10.53, 8.973 and 6.213, respectively.

As for `C=CCCCCCCCCCCCCCC` [1-Hexadecene], the “Absorbance at 600 nm” value in data set [1] (substrate concentration 0.1%) is listed as 38.99; in data set [1] (substrate concentration 0.5%), 35.33; in data set [1] (substrate concentration 1.0%), 37.93.

For `CCCCCCCCC(CCCCCC)C(=O)O` (centres unmarked) [2-Hexydecanoic acid, 2-hexyldecanoic acid], the results for the “Absorbance at 600 nm” value in data set [1] (substrate concentration 0.1%), in data set [1] (substrate concentration 0.5%) and in data set [1] (substrate concentration 1.0%) were 27.73, 35.33 and 41.53, respectively.

Turning to `CCCCCC` [Hexane], the “nontoxic concentration of solvent” value in data set [2] was 2%. Further, the “ABS Lambda = 600.0 nm” value was 0.119 in data set [2] (solvent concentration 0.25%); 0.148 in data set [2] (solvent concentration 0.5%); 0.119 in data set [2] (solvent concentration 1%); 0.126 in data set [2] (solvent concentration 2%); 0.005 in data set [2] (solvent concentration 4%).

Regarding `CC(C)=O` [Acetone], the “nontoxic concentration of solvent” value in data set [2] is ≤ 4%. Further, the “ABS Lambda = 600.0 nm” value in data set [2] (solvent concentration 0.25%) worked out at 0.123; in data set [2] (solvent concentration 0.5%) it was 0.183; in data set [2] (solvent concentration 1%), 0.111; in data set [2] (solvent concentration 2%), 0.149; in data set [2] (solvent concentration 4%) it was 0.087.

Consider `CCCCCCCCC(CO)CCCCCC` (centres unmarked) [2-Hexyl-1-decanol], for which the “ABS 600.0 nm” value in data set [3] (substrate concentration 0.01563%) is on record as 0.120; in data set [3] (substrate concentration 0.0313%), 0.145; in data set [3] (substrate concentration 0.063%), 0.110; in data set [3] (substrate concentration 0.13%) it was 0.273; in data set [3] (substrate concentration 0.25%), 0.145; in data set [3] (substrate concentration 0.5%), 0.122. The “ABS 600.0 nm” value in data set [3] (substrate concentration 1%) is on record as 0.117. In addition, the results for the “Absorbance at 600 nm” value in data set [1] (substrate concentration 0.1%), in data set [1] (substrate concentration 0.5%) and in data set [1] (substrate concentration 1.0%) were 24.43, 19.73 and 11.93, respectively.

On to `CCCCC(=O)C(C)C` [2-Methyl-3-heptanone], for which the “Absorbance at 600 nm” value worked out at 19.2 in data set [1] (substrate concentration 0.06%), 0.099 in data set [1] (substrate concentration 0.3%) and 0.125 in data set [1] (substrate concentration 0.6%).

`C=CCCCCCCCCCCCCCCCC` [1-Octadecene]: the “Absorbance at 600 nm” value in data set [1] (substrate concentration 0.1%) is recorded as 34.93; in data set [1] (substrate concentration 0.5%), 36.33; in data set [1] (substrate concentration 1.0%), 34.7.

Take `C=COCCCCCCCCCCCC` [Dodecylvinylether]: the “Absorbance at 600 nm” value in data set [1] (substrate concentration 0.1%) amounted to 20.43; in data set [1] (substrate concentration 0.5%) it was 12.63; in data set [1] (substrate concentration 1.0%), 7.33.

`CC1CCCCC1` [Methylcyclohexane]: the “Absorbance at 600 nm” value in data set [1] (substrate concentration 0.06%) worked out at 13.7; in data set [1] (substrate concentration 0.3%), 15.6; in data set [1] (substrate concentration 0.6%), 0.16.
